The values below come from US10988477B2 (Merck Patent GmbH, priority 2018, dated 2021).

The structures appear in SMILES notation.

One experiment deals with GCN2 kinase (Homo sapiens, UniProt Q9P2K8). Briefly: GCN2 enzyme inhibition assay (Transcreener ADP2 fluorescence polarization). Type of experiment: biochemical. As to conditions: Enzyme activity for compounds of Formula IV; Ki(app), 280 μM ATP, 25° C. The method in brief: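 Kinase activity is followed as ADP formation, measured by fluorescence polarization, using 4 nM enzyme with 280 μM ATP and 200 μM (RS)7 peptide at pH 7.5 and 25 °C for 1 h. Values come from a non-linear tight-binding fit.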
Sequence of GCN2 kinase (Q9P2K8 whole entry): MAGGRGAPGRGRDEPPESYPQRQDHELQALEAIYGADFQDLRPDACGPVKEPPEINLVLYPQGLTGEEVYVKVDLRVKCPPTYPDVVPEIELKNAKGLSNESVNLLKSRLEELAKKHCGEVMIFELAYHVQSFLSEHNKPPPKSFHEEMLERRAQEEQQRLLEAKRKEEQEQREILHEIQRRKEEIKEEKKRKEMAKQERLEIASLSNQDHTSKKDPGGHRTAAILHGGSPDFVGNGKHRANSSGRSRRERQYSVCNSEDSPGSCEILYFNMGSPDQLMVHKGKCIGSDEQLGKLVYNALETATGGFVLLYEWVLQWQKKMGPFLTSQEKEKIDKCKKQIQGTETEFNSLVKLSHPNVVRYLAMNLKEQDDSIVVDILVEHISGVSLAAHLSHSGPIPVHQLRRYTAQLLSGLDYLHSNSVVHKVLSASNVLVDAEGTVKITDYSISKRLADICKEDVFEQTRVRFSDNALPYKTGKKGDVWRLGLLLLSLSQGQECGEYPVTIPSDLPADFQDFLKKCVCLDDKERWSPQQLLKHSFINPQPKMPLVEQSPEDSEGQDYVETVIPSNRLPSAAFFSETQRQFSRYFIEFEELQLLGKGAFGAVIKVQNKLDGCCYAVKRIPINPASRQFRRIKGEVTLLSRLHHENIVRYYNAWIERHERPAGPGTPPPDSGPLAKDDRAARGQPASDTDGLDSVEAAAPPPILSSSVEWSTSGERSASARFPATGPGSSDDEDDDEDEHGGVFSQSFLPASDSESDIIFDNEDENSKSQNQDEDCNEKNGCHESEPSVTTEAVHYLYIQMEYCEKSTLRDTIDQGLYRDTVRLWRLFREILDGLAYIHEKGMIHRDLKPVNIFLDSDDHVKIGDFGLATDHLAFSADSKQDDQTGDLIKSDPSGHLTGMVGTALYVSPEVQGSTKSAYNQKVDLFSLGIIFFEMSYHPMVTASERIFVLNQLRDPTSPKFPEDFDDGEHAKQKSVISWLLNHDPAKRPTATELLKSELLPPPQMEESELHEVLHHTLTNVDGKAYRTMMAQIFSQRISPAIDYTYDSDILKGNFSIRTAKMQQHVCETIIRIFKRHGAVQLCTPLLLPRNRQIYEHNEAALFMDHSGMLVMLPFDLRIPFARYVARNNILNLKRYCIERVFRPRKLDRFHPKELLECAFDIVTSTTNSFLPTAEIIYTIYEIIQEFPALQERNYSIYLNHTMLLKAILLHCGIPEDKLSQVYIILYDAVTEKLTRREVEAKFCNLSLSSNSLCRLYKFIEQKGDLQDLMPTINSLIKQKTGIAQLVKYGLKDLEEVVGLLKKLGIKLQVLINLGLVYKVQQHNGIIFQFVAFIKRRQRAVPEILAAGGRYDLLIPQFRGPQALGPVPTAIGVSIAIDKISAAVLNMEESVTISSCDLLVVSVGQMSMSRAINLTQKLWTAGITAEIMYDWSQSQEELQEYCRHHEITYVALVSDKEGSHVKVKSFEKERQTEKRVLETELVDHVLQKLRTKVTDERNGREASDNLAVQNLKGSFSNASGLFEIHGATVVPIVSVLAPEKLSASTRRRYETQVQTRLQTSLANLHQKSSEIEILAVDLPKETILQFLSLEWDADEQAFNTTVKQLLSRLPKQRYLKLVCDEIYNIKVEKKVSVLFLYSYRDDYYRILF
(In general: Fluorescence polarisation rises when a labelled molecule tumbles more slowly, as on binding a larger partner.)
On to `O=C(N[C@@H]1CCCN(c2ccnc(-c3cnc4cnc(C(F)(F)F)cn34)n2)C1)c1cn[nH]c1` [IV-709], for which the Ki lay within 100 to 1000 nM. The same measure, in the same setting: in the case of `CC(C)(O)C1CCN(c2ccnc(-c3cnc4cnc(C(F)(F)F)cn34)n2)C1` (centres unmarked) [IV-520, 2-(1-(2-(6-(Trifluoromethyl)imidazo[1,2-a]pyrazin-3-yl)pyrimidin-4-yl)pyrrolidin-3-yl)propan-2-ol] it was 100 to 1000 nM; in that of `C[C@@H]1CN(c2ccnc(-c3cnc4cnc(C(F)(F)F)cn34)n2)C[C@H](c2cncn2C)N1` (racemic) [IV-672, Cis-3-(4-(3-Methyl-5-(1-methyl-1H-imidazol-5-yl)piperazin-1-yl)pyrimidin-2-yl)-6-(trifluoromethyl)imidazo[1,2-a]pyrazine], 100 to 1000 nM.

As for `COCC1CCCCN(c2ccnc(-c3cnc4cnc(C(F)(F)F)cn34)n2)C1` (centres unmarked) [IV-509, 3-(4-(3-(Methoxymethyl)azepan-1-yl)pyrimidin-2-yl)-6-(trifluoromethyl)imidazo[1,2-a]pyrazine], the Ki lay in the range of 100 to 1000 nM. In the case of `Cc1cc(N2CCN(C(N)=O)CC2)nc(-c2cnc3cnc(C(N)=O)cn23)n1` [IV-196, 3-(4-(4-Carbamoylpiperazin-1-yl)-6-methylpyrimidin-2-yl)imidazo[1,2-a]pyrazine-6-carboxamide], the Ki lay in the range of 10 to 100 nM.

In the case of `NC(=O)NCC1CCCN(c2ccnc(-c3cnc4cnc(C(F)(F)F)cn34)n2)C1` (centres unmarked) [IV-527, 1-((1-(2-(6-(Trifluoromethyl)imidazo[1,2-a]pyrazin-3-yl)pyrimidin-4-yl)piperidin-3-yl)methyl)urea], the Ki fell in the range of 100 to 1000 nM. The same measure, in the same setting: in the case of `CC1CC(C(N)=O)CN(c2ccnc(-c3cnc4cnc(C(F)F)cn34)n2)C1` (mixture of isomers) [IV-107, 1-(2-(6-(Difluoromethyl)imidazo[1,2-a]pyrazin-3-yl)pyrimidin-4-yl)-5-methylpiperidine-3-carboxamide] it was 10 to 100 nM; in that of `CCN1C(C)CN(c2ccnc(-c3cnc4cnc(C(F)(F)F)cn34)n2)C(C)C1c1cn[nH]c1` (single isomer, unassigned) [IV-296, 3-(4-(4-Ethyl-2,5-dimethyl-3-(1H-pyrazol-4-yl)piperazin-1-yl)pyrimidin-2-yl)-6-(trifluoromethyl)imidazo[1,2-a]pyrazine], < 10 nM. As to `CS(=O)(=O)CC1CCCN(c2ccnc(-c3cnc4cnc(C(F)(F)F)cn34)n2)C1` (centres unmarked) [IV-482, 3-(4-(3-((Methylsulfonyl)methyl)piperidin-1-yl)pyrimidin-2-yl)-6-(trifluoromethyl)imidazo[1,2-a]pyrazine], the Ki was 100 to 1000 nM. Take `NC(=O)c1cn2c(-c3nccc(N4CC(=O)N5CCCC5C4)n3)cnc2cn1` (centres unmarked) [IV-268, 3-(4-(4-Oxohexahydropyrrolo[1,2-a]pyrazin-2(1H)-yl)pyrimidin-2-yl)imidazo[1,2-a]pyrazine-6-carboxamide]: the Ki lay in the range of 100 to 1000 nM. `COc1cnc(N2CCN(C(C)=O)CC2)nc1-c1cnc2cnc(C(N)=O)cn12` [IV-701, 3-(2-(4-acetylpiperazin-1-yl)-5-methoxypyrimidin-4-yl)imidazo[1,2-a]pyrazine-6-carboxamide] had a Ki of 100 to 1000 nM. On the same count and under the same terms, with `NC(=O)c1cn2c(-c3cccc(N4CCN5C(=O)NCC5C4)n3)cnc2cn1` (centres unmarked) [IV-227, 3-(6-(3-Oxohexahydroimidazo[1,5-a]pyrazin-7(1H)-yl)pyridin-2-yl)imidazo[1,2-a]pyrazine-6-carboxamide] the figure was 100 to 1000 nM; with `FC(F)(F)c1cn2c(-c3nccc(N4CCCC(n5ccnc5)C4)n3)cnc2cn1` (centres unmarked) [IV-255, 3-(4-(3-(1H-Imidazol-1-yl)piperidin-1-yl)pyrimidin-2-yl)-6-(trifluoromethyl)imidazo[1,2-a]pyrazine], 10 to 100 nM; with `FC(F)(F)c1cn2c(-c3nccc(-c4cnn(C5CCOCC5)c4)n3)cnc2cn1` [IV-448, 3-(4-(1-(Tetrahydro-2H-pyran-4-yl)-1H-pyrazol-4-yl)pyrimidin-2-yl)-6-(trifluoromethyl)imidazo[1,2-a]pyrazine], 100 to 1000 nM. On the same count and under the same terms, with `CS(=O)(=O)N1CCC2(CC1)CN(c1ccnc(-c3cnc4cnc(C(F)(F)F)cn34)n1)C2` [IV-698, 3-(4-(7-(Methylsulfonyl)-2,7-diazaspiro[3.5]nonan-2-yl)pyrimidin-2-yl)-6-(trifluoromethyl)imidazo[1,2-a]pyrazine] the figure was 100 to 1000 nM. Still for that read-out and setting: in the case of `O=C1NCCC12CCN(c1ccnc(-c3cnc4cnc(C(F)(F)F)cn34)n1)C2` (centres unmarked) [IV-533, 7-(2-(6-(Trifluoromethyl)imidazo[1,2-a]pyrazin-3-yl)pyrimidin-4-yl)-2,7-diazaspiro[4.4]nonan-1-one] it was 100 to 1000 nM; in that of `CSCC1CCN(c2ccnc(-c3cnc4cnc(C(F)(F)F)cn34)n2)C1` (centres unmarked) [IV-594, 3-(4-(3-((Methylthio)methyl)pyrrolidin-1-yl)pyrimidin-2-yl)-6-(trifluoromethyl)imidazo[1,2-a]pyrazine], 10 to 100 nM.

Regarding `O=C(CO)N1CCN(c2ccnc(-c3cnc4cnc(C(F)(F)F)cn34)n2)CC1` [IV-618, 2-Hydroxy-1-(4-(2-(6-(trifluoromethyl)imidazo[1,2-a]pyrazin-3-yl)pyrimidin-4-yl)piperazin-1-yl)ethan-1-one], the Ki fell in the range of 100 to 1000 nM. Same read-out and setting: with `FC(F)(F)c1cn2c(-c3nccc(N4CCC(c5ccccn5)C4)n3)cnc2cn1` (centres unmarked) [IV-552, 3-(4-(3-(Pyridin-2-yl)pyrrolidin-1-yl)pyrimidin-2-yl)-6-(trifluoromethyl)imidazo[1,2-a]pyrazine] the figure was 100 to 1000 nM; with `NC(=O)N1CCN(c2ccnc(-c3cnc4cnc(C(F)(F)F)cn34)n2)CC1` [IV-612, 4-(2-(6-(Trifluoromethyl)imidazo[1,2-a]pyrazin-3-yl)pyrimidin-4-yl)piperazine-1-carboxamide], 100 to 1000 nM; with `FC(F)(F)c1cn2c(-c3nccc(N4CCNC(c5cn[nH]c5)C4)n3)cnc2cn1` (single isomer, unassigned) [IV-231, 3-(4-(3-(1H-Pyrazol-4-yl)piperazin-1-yl)pyrimidin-2-yl)-6-(trifluoromethyl)imidazo[1,2-a]pyrazine], 100 to 1000 nM.

For `CS(C)(=O)=NCC(=O)N[C@H]1CCCN(c2ccnc(-c3cnc4cnc(C(F)(F)F)cn34)n2)C1` [IV-747], the Ki is > 1000 nM.

The experiment is the same for the next values; noted with them: compounds of Formula II; 280 μM ATP, 4 nM GCN2 kinase.
The molecule `CC1CC(N=S(C)(=O)C2CC2)CN(c2cc(-c3cnc4ccc(C(F)F)nn34)ncn2)C1` (single isomer, unassigned) [II-646, Cyclopropyl((1-(6-(6-(difluoromethyl)imidazo[1,2-b]pyridazin-3-yl)pyrimidin-4-yl)-5-methylpiperidin-3-yl)imino)(methyl)-λ^6-sulfanone] registered a Ki of 10 to 1000 nM. Same read-out and setting: in the case of `CC(C)(O)C1CCCN(c2cc(-c3cnc4ccc(C(F)F)nn34)ncn2)C1` (centres unmarked) [II-608, 2-(1-(6-(6-(Difluoromethyl)imidazo[1,2-b]pyridazin-3-yl)pyrimidin-4-yl)piperidin-3-yl)propan-2-ol] it was 10 to 1000 nM; in that of `CS(C)(=O)=NCc1cccc(-c2cc(-c3cnc4ccc(C(F)F)nn34)ncn2)c1` [II-595, ((3-(6-(6-(Difluoromethyl)imidazo[1,2-b]pyridazin-3-yl)pyrimidin-4-yl)benzyl)imino)dimethyl-λ^6-sulfanone], 10 to 1000 nM.

The experiment is the same for the next values; noted with them: compounds of Formula IV; 280 μM ATP, 4 nM GCN2 kinase.
Usually IC50 stands for the midpoint of a concentration-inhibition curve. `Cc1n[nH]cc1[C@H]1CN(c2ccnc(-c3cnc4cnc(C(F)(F)F)cn34)n2)C[C@H](C)O1` [IV-761, (2S,6S)-2-methyl-6-(3-methyl-1H-pyrazol-4-yl)-4-(2-(6-(trifluoromethyl)imidazo[1,2-a]pyrazin-3-yl)pyrimidin-4-yl)morpholine] came in with a concentration for half-maximal inhibition (IC50) of 10 to 1000 nM.
